The subject of one data set is Entamoeba histolytica. The data set is described as follows: Antiprotozoal activity against Entamoeba histolytica Hk-9 trophozoites after 70 hrs by resazurin-based spectrophotometric assay. The note with it: Hk-9, 70 h. Format: functional, organism-based.
A further data set relates to Plasmodium falciparum. The data set is described as follows: Antiplasmodial activity against chloroquine and pyrimethamine-resistant Plasmodium falciparum K1 assessed as inhibition of [3H]hypoxanthine incorporation incubated for 48 hrs prior to [3H] hypoxanthine addition measured after 24 hrs by liquid scintillation counting. Format: functional, organism-based.
For another data set, the system named is Leishmania donovani. In words: Antileishmanial activity against Leishmania donovani MHOM-ET-67/L82 after 72 hrs by resazurin-based spectrophotometric assay. To be noted: MHOM-ET-67/L82, 72 h. Format: functional, organism-based. Background: The colour change of resazurin is a common sign of viable cells or microbes.
Data set [1] has as its system Trypanosoma brucei rhodesiense. The data set is described as follows: Antitrypanosomal activity against bloodstream form of Trypanosoma brucei rhodesiense STIB 900 after 70 hrs by resazurin-based spectrophotometric assay. To be noted: STIB 900, 70 h. Format: functional, organism-based.
In another data set the test system is Giardia intestinalis. The data set is described as follows: Antiprotozoal activity against Giardia intestinalis G1 after 70 hrs by resazurin-based spectrophotometric assay. The note with it: Giardia duodenalis, G1, 70 h. The class given is functional, organism-based.
The next data set has as its system Trypanosoma cruzi. The data set is described as follows: Antitrypanosomal activity against trypomastigote form of Trypanosoma cruzi Tulahuen C2C4 expressing Lac Z infected in rat L6 cells after 96 hrs by spectrophotometry. Format: functional, organism-based. The note with it: Tulahuen C2C4, L6, 96 h.
In another data set the test system is L6. In words: Cytotoxicity against rat L6 cells after 72 hrs by resazurin-based spectrophotometric assay. The class given is cell-based. The note with it: L6, 72 h.
Data set [2] is described as follows: Inhibition of beta-hematin formation in aqueous acetate buffer. Format: functional.
Data set [3] can be described thus: Selectivity ratio of IC50 for rat L6 cells to IC50 for Plasmodium falciparum K1. To be noted: read-out: Ratio IC50. Format: ADME, cell-based.
Data set [4] can be described thus: Selectivity ratio of IC50 for rat L6 cells to IC50 for Entamoeba histolytica Hk-9. The class given is ADME, cell-based. To be noted: read-out: Ratio IC50.

Structures are written as SMILES. pIC50: −log10 of the molar value. Active and inactive are the calls of the source. The calls are words filed in the database; no cut-off is given here.

In the case of `c1ccc2[nH]c(-c3ccc(OCCCOc4ccc(-c5nc6ccccc6[nH]5)cc4)cc3)nc2c1`, the negative-log IC50 (pIC50) in the data set on Entamoeba histolytica is 5.47; in the data set with Plasmodium falciparum, 6.55; in the data set on Leishmania donovani, 5.57; in [1] it was 5.82; in the data set with Giardia intestinalis, 6.13; in the data set with Trypanosoma cruzi it was 5.41. In addition, the negative logarithm of the IC50 (pIC50) in the data set on L6 is 5.45. In addition, the inhibition entry in data set [2] is “Active”. In addition, the selectivity ratio was found to be 13 in data set [3] and 1 in data set [4].
In the case of `c1ccc(COc2ccc(-c3nc4ccccc4[nH]3)cc2)c(COc2ccc(-c3nc4ccccc4[nH]3)cc2)c1`, the pIC50 was 6.47 in the data set with Plasmodium falciparum; 5.63 in the data set with Leishmania donovani; 5.88 in data set [1]; 5.22 in the data set with Trypanosoma cruzi; 5.23 in the data set with L6. Further, the selectivity ratio in [3] stood at 17.
As for `c1ccc2[nH]c(-c3ccc(OCCCCCOc4ccc(-c5nc6ccccc6[nH]5)cc4)cc3)nc2c1`, the pIC50 was 4.64 in the data set with Entamoeba histolytica; 6.57 in the data set with Plasmodium falciparum; 6.10 in the data set on Leishmania donovani; 5.99 in data set [1]; 6.09 with Giardia intestinalis; 5.62 with Trypanosoma cruzi. Also, the pIC50 in the data set on L6 is 5.17. For the same compound, the inhibition entry in data set [2] was “Active”. In addition, the selectivity ratio in data set [3] is 26.
With `Cc1ncc([N+](=O)[O-])n1CCO` [METRONIDAZOLE], the pIC50 was 5.24 in the data set on Entamoeba histolytica and 5.81 with Giardia intestinalis.
`c1cc(OCCCOc2cccc(-c3nc4ccccc4[nH]3)c2)cc(-c2nc3ccccc3[nH]2)c1`: the pIC50 in the data set with Entamoeba histolytica was 4.11; in the data set with Plasmodium falciparum, 5.62; in the data set on Leishmania donovani, 5.41; in [1], 5.10; in the data set on Giardia intestinalis, 4.25; in the data set with Trypanosoma cruzi it was 5.05. Besides, the negative-log IC50 (pIC50) in the data set with L6 was 5.01. Moreover, the inhibition result in data set [2] was “Active”. Also, the selectivity ratio in data set [3] is 4.
Take `c1ccc2[nH]c(-c3ccc(OCCCCCCOc4ccc(-c5nc6ccccc6[nH]5)cc4)cc3)nc2c1`: the pIC50 in the data set on Entamoeba histolytica is less than 3.70; in the data set on Plasmodium falciparum it was 6.62; with Leishmania donovani, 5.18; in [1], 5.14; in the data set with Giardia intestinalis, 5.45; in the data set with Trypanosoma cruzi it was 5.22. The same compound had a negative logarithm of the IC50 (pIC50) in the data set with L6 of 5.02. Also, the inhibition result in data set [2] is “Active”. The selectivity ratio in data set [3] was determined as 40.
With `c1cc(OCCCCCCCCCOc2cccc(-c3nc4ccccc4[nH]3)c2)cc(-c2nc3ccccc3[nH]2)c1`, the negative-log IC50 (pIC50) is 4.34 in the data set on Entamoeba histolytica; 6.24 in the data set on Plasmodium falciparum; 5.18 in the data set with Leishmania donovani; 5.63 in [1]; 4.34 in the data set on Giardia intestinalis; 5.30 in the data set on Trypanosoma cruzi. The pIC50 with L6 is 4.66. Moreover, the selectivity ratio in data set [3] came out at 39.
In the case of `c1cc(OCCCCCCCCOc2cccc(-c3nc4ccccc4[nH]3)c2)cc(-c2nc3ccccc3[nH]2)c1`, the pIC50 was 4.63 in the data set with Entamoeba histolytica; 6.35 in the data set on Plasmodium falciparum; 5.23 in the data set on Leishmania donovani; 5.35 in [1]; 4.28 in the data set with Giardia intestinalis; 5.37 in the data set with Trypanosoma cruzi. The pIC50 in the data set on L6 was 4.88. In addition, the selectivity ratio in [3] stood at 29.
Regarding `c1cc(OCc2ccccc2COc2cccc(-c3nc4ccccc4[nH]3)c2)cc(-c2nc3ccccc3[nH]2)c1`, the pIC50 is 6.47 in the data set with Plasmodium falciparum; 5.52 in the data set on Leishmania donovani; 5.58 in [1]; 5.60 with Trypanosoma cruzi; 5.15 in the data set with L6. Further, in data set [3], the selectivity ratio was found to be 20.
Regarding `c1ccc2[nH]c(-c3ccc(OCCOc4ccc(-c5nc6ccccc6[nH]5)cc4)cc3)nc2c1`, the negative logarithm of the IC50 (pIC50) was 3.72 in the data set with Entamoeba histolytica; 5.70 in the data set with Plasmodium falciparum; less than 3.69 in the data set on Leishmania donovani; 3.81 in data set [1]; 3.91 in the data set with Giardia intestinalis; 3.88 in the data set on Trypanosoma cruzi. Further, the pIC50 with L6 was 4.60. The selectivity ratio in data set [3] stood at 13.
With `c1cc(OCCCCCOc2cccc(-c3nc4ccccc4[nH]3)c2)cc(-c2nc3ccccc3[nH]2)c1`, the negative logarithm of the IC50 (pIC50) is 4.56 in the data set with Entamoeba histolytica; 6.47 with Plasmodium falciparum; 5.92 in the data set with Leishmania donovani; 5.88 in [1]; 4.73 with Giardia intestinalis; 5.77 in the data set with Trypanosoma cruzi. In the data set on L6, this compound gave a pIC50 of 5.45. In [3], the selectivity ratio was 10.
Consider `c1ccc2[nH]c(-c3ccc(OCCCCCCCOc4ccc(-c5nc6ccccc6[nH]5)cc4)cc3)nc2c1`, for which the negative logarithm of the IC50 (pIC50) was 4.66 with Entamoeba histolytica; 6.64 with Plasmodium falciparum; 5.82 with Leishmania donovani; 5.97 in data set [1]; 5.87 in the data set on Giardia intestinalis; 4.83 in the data set with Trypanosoma cruzi. The same compound had a pIC50 in the data set on L6 of 4.32. Further, in data set [2], the inhibition result is “Active”. Besides, in [3], the selectivity ratio came to 208.
On to `c1cc(OCCCCCCCOc2cccc(-c3nc4ccccc4[nH]3)c2)cc(-c2nc3ccccc3[nH]2)c1`, for which the pIC50 in the data set with Entamoeba histolytica is 4.25; in the data set with Plasmodium falciparum, 6.39; in the data set with Leishmania donovani, 5.57; in [1], 5.86; in the data set with Giardia intestinalis it was 4.59; with Trypanosoma cruzi it was 5.74. In the data set with L6, this compound had a negative logarithm of the IC50 (pIC50) of 3.93. Moreover, the inhibition entry in data set [2] was “Active”. Also, in [3], the selectivity ratio was found to be 291.
Take `c1cc(OCCCCCCCCCCOc2cccc(-c3nc4ccccc4[nH]3)c2)cc(-c2nc3ccccc3[nH]2)c1`: the negative-log IC50 (pIC50) with Entamoeba histolytica is 4.65; in the data set with Plasmodium falciparum it was 6.44; in the data set on Leishmania donovani, 4.88; in data set [1], 5.68; in the data set with Giardia intestinalis, 3.76; with Trypanosoma cruzi, 4.08. The compound further had a negative-log IC50 (pIC50) with L6 of 4.14. Also, the selectivity ratio in data set [3] turned out to be 202.
As for `c1cc(OCCOc2cccc(-c3nc4ccccc4[nH]3)c2)cc(-c2nc3ccccc3[nH]2)c1`, the negative-log IC50 (pIC50) in the data set on Entamoeba histolytica is 4.08; in the data set with Plasmodium falciparum it was 5.59; in the data set on Leishmania donovani, 4.62; in [1] it was 4.78; in the data set on Giardia intestinalis, 4.93; in the data set with Trypanosoma cruzi it was 5.33. The negative logarithm of the IC50 (pIC50) in the data set with L6 is 5.30. Besides, in data set [2], the inhibition result is “Active”. In data set [3], the selectivity ratio stood at 2.
As for `c1cc(OCCCCOc2cccc(-c3nc4ccccc4[nH]3)c2)cc(-c2nc3ccccc3[nH]2)c1`, the pIC50 in the data set on Entamoeba histolytica is 3.68; with Plasmodium falciparum it was 6.64; with Leishmania donovani it was 5.00; in data set [1], 4.73; in the data set on Giardia intestinalis, 4.44; in the data set with Trypanosoma cruzi, 4.62. The negative logarithm of the IC50 (pIC50) in the data set with L6 is 4.67. In data set [2], the inhibition entry is “Active”. For the same compound, the selectivity ratio in [3] was 92.
As for `c1ccc2[nH]c(-c3ccc(OCOc4ccc(-c5nc6ccccc6[nH]5)cc4)cc3)nc2c1`, the negative-log IC50 (pIC50) in the data set with Plasmodium falciparum was 6.16; in the data set with Leishmania donovani, 4.78; in [1] it was 5.67; in the data set on Trypanosoma cruzi, 4.95; in the data set on L6, 4.84. Further, the selectivity ratio in [3] turned out to be 21.
As to `c1cc(COc2cccc(-c3nc4ccccc4[nH]3)c2)cc(COc2cccc(-c3nc4ccccc4[nH]3)c2)c1`, the negative-log IC50 (pIC50) in the data set with Plasmodium falciparum is 6.40; in the data set on Leishmania donovani it was 5.33; in data set [1], 5.44; in the data set with Trypanosoma cruzi, 5.22; in the data set on L6, 4.10. Besides, the selectivity ratio in data set [3] stood at 198.
In the case of `c1ccc2[nH]c(-c3ccc(OCc4ccc(COc5ccc(-c6nc7ccccc7[nH]6)cc5)cc4)cc3)nc2c1`, the pIC50 in the data set with Plasmodium falciparum is 6.64; with Leishmania donovani, 6.10; in data set [1], 5.67; with Trypanosoma cruzi it was 4.58; in the data set on L6, 4.80. Moreover, the selectivity ratio in data set [3] was 70.
For `O=C(Cn1ccnc1[N+](=O)[O-])NCc1ccccc1` [BENZNIDAZOLE], the negative logarithm of the IC50 (pIC50) in the data set with Trypanosoma cruzi was 5.95.
As for `c1cc(OCOc2cccc(-c3nc4ccccc4[nH]3)c2)cc(-c2nc3ccccc3[nH]2)c1`, the pIC50 in the data set on Plasmodium falciparum is 5.77; with Leishmania donovani it was 5.21; in [1], 4.85; in the data set with Trypanosoma cruzi, 4.93; in the data set on L6, 4.72. Also, the selectivity ratio in data set [3] amounted to 11.
`c1ccc2[nH]c(-c3ccc(OCCCCCCCCCCOc4ccc(-c5nc6ccccc6[nH]5)cc4)cc3)nc2c1`: the negative logarithm of the IC50 (pIC50) in the data set on Entamoeba histolytica was 4.71; in the data set with Plasmodium falciparum, 6.74; with Leishmania donovani it was 3.91; in data set [1] it was 5.03; with Giardia intestinalis, 4.66; in the data set with Trypanosoma cruzi it was 4.05. In the data set on L6, the pIC50 was 4.34. Moreover, the selectivity ratio in [3] was determined as 257.
Regarding `c1cc(OCc2ccc(COc3cccc(-c4nc5ccccc5[nH]4)c3)cc2)cc(-c2nc3ccccc3[nH]2)c1`, the pIC50 in the data set with Plasmodium falciparum was 6.72; with Leishmania donovani, 5.07; in data set [1], 4.62; in the data set with Trypanosoma cruzi, 4.96; with L6 it was 4.98. In addition, the selectivity ratio in data set [3] came out at 54.
In the case of `c1cc(OCCCCCCOc2cccc(-c3nc4ccccc4[nH]3)c2)cc(-c2nc3ccccc3[nH]2)c1`, the pIC50 with Entamoeba histolytica was 4.13; with Plasmodium falciparum, 6.55; in the data set on Leishmania donovani it was 5.59; in [1] it was 5.63; with Giardia intestinalis, 4.75; in the data set on Trypanosoma cruzi it was 5.41. This compound also gave a negative-log IC50 (pIC50) with L6 of 5.10. The selectivity ratio in data set [3] came to 29.

As usually defined, the pIC50 is the IC50 on a negative log10 scale, so that one unit is a factor of ten.

The values above are taken from ChEMBL document CHEMBL1926599, “Bis(oxyphenylene)benzimidazoles: a novel class of anti-Plasmodium falciparum agents” (Bioorg Med Chem, 2011).
